Assays:
[1] = target: T1, Zap-70 (Homo sapiens, UniProt P43403); assay: Immunoblotting of p-Zap-70 in primary NK cells from healthy volunteers; assay type: cell-based; design: endogenous in cells; host or cells: primary PBMCs, primary T cells and primary NK cells from healthy volunteers; conditions: primary NK cells #1-#4, pomalidomide 0.5 μM, 24 h
T1 sequence (P43403 1-619): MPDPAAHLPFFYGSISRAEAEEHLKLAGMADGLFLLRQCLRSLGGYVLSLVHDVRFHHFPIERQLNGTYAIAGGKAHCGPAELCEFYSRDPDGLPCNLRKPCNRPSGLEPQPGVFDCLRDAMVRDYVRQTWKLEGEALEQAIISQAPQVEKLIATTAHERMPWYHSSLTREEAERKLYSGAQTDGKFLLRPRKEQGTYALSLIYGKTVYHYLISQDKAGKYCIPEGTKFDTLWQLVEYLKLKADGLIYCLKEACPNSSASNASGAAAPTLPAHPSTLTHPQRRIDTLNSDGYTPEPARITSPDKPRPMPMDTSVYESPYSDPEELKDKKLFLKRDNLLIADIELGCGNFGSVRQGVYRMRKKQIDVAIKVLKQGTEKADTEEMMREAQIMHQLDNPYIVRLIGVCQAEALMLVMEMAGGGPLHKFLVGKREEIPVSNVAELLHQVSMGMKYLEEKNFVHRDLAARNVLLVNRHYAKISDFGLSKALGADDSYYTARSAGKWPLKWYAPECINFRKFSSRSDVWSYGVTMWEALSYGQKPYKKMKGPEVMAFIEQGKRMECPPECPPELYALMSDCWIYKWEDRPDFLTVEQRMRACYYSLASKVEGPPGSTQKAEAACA
Experimental: KHYG-1 cells were cultured with pomalidomide (0.25-1 μM) for 24 h. (A) Whole cell lysates were subjected to immunoblotting using indicated Abs. (B) KHYG-1 cells were incubated with calcein-AM-stained U266 cells for 4 h at the indicated effector/target (E/T) ratios. Percent specific lysis was calculated as described previously. (C) KHYG-1 cells were transfected with Scsi or Zap-70si, and then cultured with pomalidomide (0.25 μM) for 72 h in the absence of IL-2. Viable cell number was determined, and cells were then incubated with calcein AM-labeled U266 target cells for 4 h at indicated effector/target (E/T) ratios. Percent specific lysis was calculated as described previously. (D) After transfection with Scsi or Zap-70si, cells were cultured with lenalidomide or pomalidomide for 72 h. Cell growth was assessed by MTT assay. (E) KHYG-1 cells were transfected with scrambled (Scsi) or CRBNsi. The transfectants were then cultured with pomalidomide (0.5 μM) for 24 h, and whole cell lysates were subjected to immunoblotting using indicated Abs. The arrow indicates CRBN expression. (F) Primary NK cells (#1, #2, #3, #4) were isolated from healthy volunteer's PBMCs, as described in Materials and Methods. NK cells were cultured with pomalidomide (0.5 μM) for 24 h, and whole cell lysates were subjected to immunoblotting using indicated Abs. […] Percent specific lysis was calculated as previously described.

[2] = target: T1, Zap-70; assay: Saturation-transfer difference (STD) NMR binding to recombinant Zap-70; design: purchased Origene, Rockville, MD; conditions: Pom 320 μM, Len 2.56 mM, ATP 2.56 mM, Zap-70 approximately 2 μM, deuterated PBS
Experimental: (A) Jurkat cells were transfected with scrambled (Sc) siRNA or Zap-70 siRNA. Whole cell lysates were subjected to immunoblotting using indicated Abs. (B) Jurkat cells were treated with lenalidomide ([…]) or pomalidomide (1 and 3 μM) for 4 h and 8 h. Whole cell lysates were subjected to p-Zap ELISA assay. (C) Jurkat whole cell lysates were incubated with pomalidomide-beads in the presence or absence of competitor (1 mM free pomalidomide) for 1 h. After elution, samples were subjected to immunoblotting using anti-Zap-70 Ab. (D) Saturation-transfer difference resulting from the binding of pomalidomide to Zap-70. Pomalidomide is at 320 μM and Zap-70 is approximately 2 μM in deuterated PBS solution. […] (E) Saturation-transfer difference resulting from the binding of pomalidomide to Zap-70 in the presence of 2.56 mMATP. Pomalidomide is at 320 μM and Zap-70 is approximately 2 μM in deuterated PBS solution. […] Note that both ATP and pomalidomide show binding the Zap-70. (F) Non-cell based Zap-70 kinase assay was carried out, according to manufacturer's protocol.
(A) Saturation-transfer difference resulting from the binding of lenalidomide to Zap-70, with lenalidomide (2.56 mM) and Zap-70 (2 μM) in deuterated PBS solution. […] (B) Saturation-transfer difference resulting from the binding of lenalidomide to Zap70 in the presence of 2.56 mM ATP, with lenalidomide (2.56 mM) and Zap-70 (2 μM) in deuterated PBS solution.
Commercial recombinant Zap-70 (Origene, Rockville, MD) was prepared by gel filtration buffer exchange into deuterated phosphate-buffered saline (PBS), which removed any components of the protein storage buffer, including glycerol. Len and Pom were made as d6-DMSO stock solutions and frozen in aliquots prior to use. ATP was stored frozen in aliquots at −20° C. in deuterated PBS. NMR samples were prepared in 5 mm SampleJet tubes to a final volume of 500 μl by adding 5-20 μl of the appropriate IMiD stock solution to the buffer-exchanged protein. The final concentration of protein in the NMR samples was approximately 2 μM. […]

SMILES: Nc1cccc2c1C(=O)N(C1CCC(=O)NC1=O)C2=O (centres unmarked) [pomalidomide]
- p-Zap-70 (immunoblotting) [1]: upregulated p-Zap-70 in primary NK cells
- direct binding to Zap-70 (STD NMR) [2]: directly binds to Zap-70

— patent publication US20240216354A1, “IMMUNOMODULATORY IMIDE DRUGS AS ZETA-CHAIN-ASSOCIATED PROTEIN KINASE 70 (ZAP70) AGONISTS AND USES THEREOF” (Dana-Farber Cancer Institute, Inc., priority 2019, published 2024)
